Experimental data taken from patent US20260097111A1, “ETHER LIPIDS FOR HYPERACTIVATION OF MAMMALIAN DENDRITIC CELLS” (priority 2022, published 2026).
Entries after “also recorded” stand apart in the source; their conditions may differ.

Experiments:
FLT3L-DCs = experiment: Migration of injected FLT3L-DCs to skin draining lymph nodes; type: in vivo, mice; settings: DCs stimulated with R848 1 μg/mL and 41 uM lipid, injected SC, 24 hours; FIG. 5; listed as DGP
Procedure: Murine bone marrow-derived FLT3L-DCs hyperactivation for migration assays. BMDCs were harvested on day 8 post differentiation, washed with PBS, and re-plated in FLT3L-containing I10 at a concentration of 1×10^6 cells/mL. For DC hyperactivation, 500 μl of R848 was added at a final concentration of 1 μg/mL, and 500 μl of lipids (DGPC (Compound 1), DGP (Compound 2), DHC (Compound 7) or DHMC (Compound 8) or 22:0 lyso PC) prepared in 4% KP407 was diluted to a final concentration of 41 uM. Cells were incubated for 24 hours at 37° C. on a tube rotator. Twenty-four hours post-stimulation, cells were washed with PBS and stained with CFSE (1:1000) for 30 min at 37° C. in the dark. DCs were then counted and 1.10×10^6 cells were injected subcutaneously (SC) in 100 ul per mouse. 24 hours post-injection, the skin draining lymph nodes (dLN) were dissected. A single cell suspension was prepared, and cells were stained in PBS with Live Dead Fixable dye (ThermoFisher) for 20 min at 4° C. Cells were then washed again and stained for 20 min at 4° C. in MACS buffer (PBS with 1% FCS and 2 mM EDTA) containing the following fluorescently conjugated antibodies: anti-CD11c and anti-I-A/I-E (MHC-II). […] Data were analyzed using FlowJo software (Tree Star). […]

murine FLT3L-DCs = experiment: Murine bone marrow-derived FLT3L-DCs hyperactivation; type: cell-based, mice; settings: R848 alone vs R848 in combination with DGP; FIG. 4C
Procedure: Murine bone marrow-derived FLT3L-DCs generation. Leg femur and tibia were removed from mice, cut with scissors, and flushed into sterile tubes. Bone marrow suspension was treated with ACK for 1 minute, then passed through a 40 um cell strainer. Cells were counted and resuspended in media consisting of complete IMDM containing 10% FBS, penicillin and streptomycin, and supplements of L-glutamine and sodium pyruvate (I10). […] For each experiment, 5 mice are used to collect BM and to generate DCs.
Lipid preparation. […] Lipid stocks were then further diluted in PBS to treat cells.
Murine bone marrow-derived FLT3L-DCs hyperactivation. BMDCs were harvested on day 8 post differentiation, washed with PBS, and re-plated in FLT3L-containing I10 at a concentration of 1×10^5 cells/mL. Cells were primed with or without 1 μg/mL R848 (final) then treated with or without a hyperactivating lipid (or vehicle control). Forty-eight hours post stimulation, supernatants were collected for cytokine measurement. Viability was measured using the CellTiter-Glo assay (Promega) which measures ATP content from cells. Fifty microliters of CellTiter-Glo reagent were added to 50 μL of cells. Luminescence was quantified on a SpectraMax m5e plate reader using an integration time of 500 milliseconds. Viability data were set relative to control conditions where cells were treated with R848. IL-1β and TNFα cytokine were measured using sandwich ELISAs (Invitrogen).

human moDCs = experiment: In vitro transwell migration assay towards CCL19; type: cell-based; settings: donor HD87, 10 ng/mL CCL19; FIG. 34A
Procedure: In Vitro Transwell Migration Assay. To test the capacity of human dendritic cells to migrate, an in vitro migration assay was set up. After differentiation into moDC using GM-CSF and IL-4, cells were plated on 10 cm petri dishes at 4×10^6 cells/plate in R10++. Cells were treated with various combinations of 2.85 μM R848, 82.5 μM DGP, and 10 μM MCC950 (final concentrations). Additionally, 50 ng/mL GM-CSF and 25 ng/mL IL-4 was added to the plates. Cell cultures were incubated in a total of 8 mL/plate in a 37° C. incubator on an orbital shaker set at 100 rpm overnight.
Cells were collected from plates and any remaining cells on plates were washed off the plates using PBS. After pelleting cells at 400×g for 5 min, cells were resuspended in R10++ and counted. Cell concentrations were adjusted to 5×10^5 cells/mL and plated in triplicate in the apical chambers of transwells at 1.5×10^5 cells/well. R10++ media containing 0; 20; or 200 ng/mL CCL19 were prepared and added to the basal chambers at 300 μL/well. For each cell treatment condition, control wells without transwell inserts were plated with an equivalent volume of cells and R10++ media. […]
To enumerate migrated DCs, an absolute count was obtained based on the total events acquired of counting beads and live, CD11c+CD209+ single cells. […] Finally, migration was calculated relative to cells treated with only R848 with no CCL19 added.

Compound	DC migration from the skin to the dLN (FLT3L-DCs)	TNFα secretion (murine FLT3L-DCs)	migration to the basal chamber (human moDCs)
CCCCCCCCCCCCCCCCCCCCCCOC[C@@H](O)COP(=O)(O)O [Compound 2, 1-docosyl-sn-glycerol-3-phosphate]	significantly enhanced DC migration from the skin to the dLN; also recorded: migration activity was significantly higher than DGPC (Compound 1)	comparable	
CC(C)(O)c1coc(S(=O)(=O)NC(=O)Nc2c3c(cc4c2CCC4)CCC3)c1 [MCC950, reference compound]			did not inhibit the hypermigration observed with R848+DGP
